# Reference: patent US20210085630A1, “PHARMACEUTICAL COMPOSITION AND USE THEREOF IN PREPARING DRUG FOR TREATING TUMOR MULTI-DRUG RESISTANCE” (SICHUAN JIUZHANG BIOLOGICAL SCIENCE AND TECHNOLOGY CO., LTD., priority 2018, published 2021)
# Key:
# [1] = tested on: multi-drug resistant Lewis lung cancer; experiment: Tumor weight and inhibition rate, transplanted multi-drug resistant Lewis lung cancer; type: in vivo, mice
# Description: Lewis lung cancer cell lines were induced by the increased gradient concentration of dacarbazine and gemcitabine, and established by clone screening, then cultured without drug before the experiment.
# (§1) After the drug was removed from the drug-resistant cell lines, the cell concentration was adjusted to 1×10^7/ml with the culture medium. 1×10^7/ml of cells were subcutaneously injected into the right armpit of mice, 0.1 ml per mouse.
# (§2) After the average diameter of tumor reached […], the mice were randomly divided into test drug group 1, test drug group 2, test drug group 3, test drug group 4, test drug group 5, test drug group 6, positive drug group, and negative group, respectively.
# (§3) Test drug group: the test drug group was first intraperitoneally injected, once a day, 30 mg/kg/time, for 5 consecutive days; administration was stopped, and the positive drug was given by intraperitoneal injection on the next day; wherein the positive drug dacarbazine was administrated once every other day, 60 mg/kg/time; wherein the positive drug gemcitabine was given once every other day, 300 mg/kg/time.
# (§4) Positive drug group: positive drug dacarbazine was given once every other day, 60 mg/kg/time; positive drug gemcitabine was given once every other day, 300 mg/kg/time.
# (§5) Negative group: normal saline was intraperitoneally injected, once a day, for 15 consecutive days.
# (§6) After completion of administration, the experiment was stopped, and the mice were killed by cervical dislocation and weighed. The tumor was stripped and weighed, to calculate the tumor inhibition rate.
# PD-1/PD-L1 [2] = experiment: PD-1/PD-L1 expression rate in transplanted tumor tissues, multidrug resistance model; type: in vivo; details: transplanted tumor tissues of B16 melanoma mice with multidrug resistance (as titled), Example 5 regimen
# Description: (§7) The positive expression rate of PD-1/PD-L1 in tumor tissues was detected by immunohistochemical SP method.
# PD-1/PD-L1 [3] = experiment: PD-1/PD-L1 expression rate (immunohistochemical SP method), drug-resistant Lewis lung cancer tumor tissue; type: in vivo; details: transplanted tumor tissues of drug-resistant Lewis lung cancer in mice, Example 3 regimen
# Description: as §7
# [4] = tested on: CD4+T and CD8+T lymphocytes; experiment: Number of CD4+T and CD8+T lymphocytes in transplanted tumor of multidrug-resistant Lewis lung cancer mice; type: in vivo; details: average of 6 high power fields
# Description: (§8) The number of CD4+T and CD8+T lymphocytes was analyzed by immunofluorescence staining, and the average number of CD4+T and CD8+T cells infiltrated in 6 high power fields was counted.
# [5] = tested on: CD4+T and CD8+T lymphocytes; experiment: Number of CD4+T and CD8+T cells (immunofluorescence), drug-resistant Lewis lung cancer transplanted tumor; type: in vivo; details: transplanted tumor of drug-resistant Lewis lung cancer in mice, average of 6 high power fields
# Description: as §8
# [6] = tested on: gemcitabine-resistant Lewis lung cancer; experiment: Tumor weight and inhibition rate, transplanted gemcitabine-resistant Lewis lung cancer; type: in vivo; details: gemcitabine-resistant Lewis lung cancer mice; test drug 30 mg/kg i.p. once a day 5 days, then gemcitabine 300 mg/kg every other day; positive drug gemcitabine 300 mg/kg
# Description: Lewis lung cancer cell lines were induced by the increased gradient concentration of gemcitabine, and established by clone screening and cultured without drug before the experiment.
# as §1, §2, §3, §4, §5, §6
# [7] = tested on: drug-resistant A549 lung cancer cell lines; experiment: MTT: IC50 of gemcitabine against drug-resistant A549 cells and drug-resistant index; type: cell-based, human
# Description: A549 lung cancer cell lines were exposed to gemcitabine (2000 μg/ml) for 3 months, and centrifuged, to culture gemcitabine-resistant A549 cells. The cells were observed every day, and taken through 3 passages for about 3 days, to ensure cell viability.
# Above-mentioned cell lines and drug-resistant cell lines in the logarithmic growth phase were selected, the cell concentration was adjusted to 8×10^3 cells/well, and then cells were seeded in a 96-well plate. For the experiment, there were three groups: blank group, control group and gemcitabine group. In the blank group, only medium was added, without inoculating cells; in the control group, medium was added, and cells were inoculated; in the gemcitabine group, medium was added, cells were inoculated, and then gemcitabine was added at different concentrations. The plates were placed in an incubator and incubated for 48 h, then 5 mg/ml MTT (20 μl) was added to each well, and the plate was further incubated for 4 h. […] Drug-resistant index=IC50 value of drug-resistant cells/IC50 value of sensitive cells
# [8] = multi-drug resistant Lewis lung cancer mice, test drug 30 mg/kg i.p. 5 days, then gemcitabine 300 mg/kg or dacarbazine 60 mg/kg every other day
structure (smiles),measurement,setting,value
"Nc1ccn([C@@H]2O[C@H](CO)[C@@H](O)C2(F)F)c(=O)n1 [Gemcitabine, gemcitabine, reference compound]",Tumor weight,[1]; [8],2.27 ± 0.38 g
same,Tumor-inhibition rate (%),[1]; [8],3.81%
same,inhibitory effect on the tumor (in words),"[1]; multidrug-resistant Lewis lung cancer mice, positive drug groups",don't have obvious inhibitory effect
same,"Expression rate of PD-1/PD-L1, Positive PD-L1",PD-1/PD-L1 [2],74.35%
same,"Expression rate of PD-1/PD-L1, Positive PD-L1",PD-1/PD-L1 [3],78.93%
same,CD4 + T cells (number),[4],77.69 ± 8.96
same,CD8 + T cells (number),[4],121.08 ± 10.32
same,CD4 + T cells (number),[5],82.16 ± 1.42
same,CD8 + T cells (number),[5],112.53 ± 4.28
same,Tumor inhibitory rate (%),[6],5.24%
same,Tumor weight (g),[6],2.17 ± 0.89 ^ g
same,IC50,"[7]; Homo sapiens, gemcitabine against drug-resistant A549 lung cancer cell lines, MTT, 48 h, read-out: IC50 Concentration",3620 µg/mL
same,Drug-resistant index,"[7]; IC50 of drug-resistant cells/IC50 of sensitive cells, A549",4.63
